We go through one molecule from ChEMBL document CHEMBL1133403 (Bioorg Med Chem Lett, 2000).

Test [1] has as its target T1, Androgen receptor (Homo sapiens, UniProt P10275).
T1 sequence (P10275 whole entry): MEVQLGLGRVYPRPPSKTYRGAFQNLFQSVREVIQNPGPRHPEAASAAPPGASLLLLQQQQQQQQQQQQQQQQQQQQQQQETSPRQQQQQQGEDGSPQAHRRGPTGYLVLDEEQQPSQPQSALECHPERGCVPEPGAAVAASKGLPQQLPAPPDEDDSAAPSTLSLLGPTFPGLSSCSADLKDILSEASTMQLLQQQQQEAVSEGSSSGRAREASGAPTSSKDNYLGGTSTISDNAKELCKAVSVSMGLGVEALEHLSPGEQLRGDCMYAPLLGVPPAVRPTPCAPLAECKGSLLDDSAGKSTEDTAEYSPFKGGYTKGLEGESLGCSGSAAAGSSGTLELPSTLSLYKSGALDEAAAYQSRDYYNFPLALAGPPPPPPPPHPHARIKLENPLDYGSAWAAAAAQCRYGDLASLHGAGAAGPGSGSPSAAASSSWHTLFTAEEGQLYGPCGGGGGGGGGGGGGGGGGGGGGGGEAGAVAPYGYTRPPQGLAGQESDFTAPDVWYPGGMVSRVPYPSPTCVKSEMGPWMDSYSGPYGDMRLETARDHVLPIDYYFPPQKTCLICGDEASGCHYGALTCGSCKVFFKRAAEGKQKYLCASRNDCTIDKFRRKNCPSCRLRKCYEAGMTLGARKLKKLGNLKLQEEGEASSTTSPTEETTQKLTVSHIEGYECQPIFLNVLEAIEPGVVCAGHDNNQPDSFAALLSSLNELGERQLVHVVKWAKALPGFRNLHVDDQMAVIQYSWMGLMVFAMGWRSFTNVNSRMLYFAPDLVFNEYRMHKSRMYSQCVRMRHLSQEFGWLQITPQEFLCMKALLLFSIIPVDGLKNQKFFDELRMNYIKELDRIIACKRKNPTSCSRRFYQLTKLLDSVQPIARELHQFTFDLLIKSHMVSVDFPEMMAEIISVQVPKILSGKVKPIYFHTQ
The test is described as follows: Cross-reactivity as binding to human androgen receptor (hAR). Type of test: functional.

Test [2] has as its target T2, Progesterone receptor (Homo sapiens, UniProt P06401).
T2 sequence (P06401 whole entry): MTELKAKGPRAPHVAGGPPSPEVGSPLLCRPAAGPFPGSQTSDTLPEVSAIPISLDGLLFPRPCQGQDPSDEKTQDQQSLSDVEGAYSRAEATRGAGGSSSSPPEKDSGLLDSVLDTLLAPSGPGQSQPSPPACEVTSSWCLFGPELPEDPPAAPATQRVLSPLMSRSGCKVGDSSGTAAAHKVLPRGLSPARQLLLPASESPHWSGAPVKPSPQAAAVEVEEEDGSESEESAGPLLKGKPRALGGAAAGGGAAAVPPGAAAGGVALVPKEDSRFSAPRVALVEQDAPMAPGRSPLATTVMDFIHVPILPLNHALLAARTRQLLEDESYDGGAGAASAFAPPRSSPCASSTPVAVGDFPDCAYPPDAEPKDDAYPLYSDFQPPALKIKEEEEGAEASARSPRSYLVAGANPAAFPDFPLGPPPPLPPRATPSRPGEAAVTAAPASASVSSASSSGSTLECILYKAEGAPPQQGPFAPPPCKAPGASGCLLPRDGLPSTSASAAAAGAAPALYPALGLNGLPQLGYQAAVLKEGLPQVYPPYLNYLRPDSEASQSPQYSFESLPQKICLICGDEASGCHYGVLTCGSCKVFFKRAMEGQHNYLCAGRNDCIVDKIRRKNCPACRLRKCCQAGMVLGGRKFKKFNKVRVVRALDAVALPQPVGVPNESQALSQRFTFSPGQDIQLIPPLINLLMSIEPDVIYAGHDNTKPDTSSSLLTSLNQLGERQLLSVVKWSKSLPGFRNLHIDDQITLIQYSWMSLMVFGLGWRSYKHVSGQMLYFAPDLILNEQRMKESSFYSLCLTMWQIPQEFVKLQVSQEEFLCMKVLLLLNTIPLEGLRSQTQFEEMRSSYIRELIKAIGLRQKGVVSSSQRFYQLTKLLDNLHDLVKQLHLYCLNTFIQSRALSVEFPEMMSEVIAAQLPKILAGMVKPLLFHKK
The test is described as follows: Human progesterone receptor (hPR) agonist activity in T47D human breast cancer cell line. The format is functional, cell-based.

Test [3] has as its target T2, Progesterone receptor. The test can be described thus: Binding affinity against human progesterone receptor (hPR) in a competitive binding assay.
Test [4] concerns the target T2, Progesterone receptor. The test is described as follows: Human progesterone receptor (hPR) agonist activity using cotransfection assay in CV-1 cells. Type of test: functional, cell-based.

On to `CC1=CC(C)(C)Nc2ccc(-c3ccc([N+](=O)[O-])s3)cc21`, for which the IC50 (in general, the concentration needed to halve the response being measured) in test [1] was found to be 1460 nM. Moreover, the 50% effective concentration (EC50) (in general, the midpoint of the concentration-response curve) is 1020 nM in test [2] and “Not Active” in test [4]. Also, the affinity in test [3] corresponds to a Ki of 2.6 nM.
